Test results from PMC6458995, “MAP4K4 Inhibition Promotes Survival of Human Stem Cell-Derived Cardiomyocytes and Reduces Infarct Size In Vivo” (Cell Stem Cell, 2019).
pIC50: −log10 of the molar value.

Legend:
FLT3 = FLT3 (Homo sapiens, UniProt P36888); test: HTRF Transcreener ADP kinase assay; type: biochemical
Procedure: (§1) MAP4K4 kinase activity was monitored using the CisBio HTRF Transcreener ADP assay, a competitive immunoassay with a reproducible Z’ > 0.6. In the detection step, endogenous ADP and d2-labeled ADP compete for binding an anti-ADP monoclonal antibody labeled with Eu^3+ cryptate. A ratiometric fluorescent readout is used at 665 and 620 nm. […] Assays were run in Greiner low volume plates with a final reaction volume of 10 μl. Percent inhibition was calculated from 100% activity of MAP4K4 (DMSO only) and 0% activity (no enzyme added). Data were either reported as % inhibition at a single dose or as pIC50 values derived from dose response curves (pIC50 = -log[IC50]).
(§2) Kinase selectivity profiling was performed by the International Centre for Kinase Profiling, MRC Protein Phosphorylation and Ubiquitylation Unit (141 kinases; Premier Screen, http://www.kinase-screen.mrc.ac.uk), using a [γ-^33P]ATP filter binding assay ([Bain et al., 2007]). Compounds were screened at 1 μM. For key hits, pIC50 values were then determined by HTRF as above. More complete kinome profiling was performed by Reaction Biology (376 kinases). Stability in mouse and human liver microsomes was determined by Cyprotex.

MLK1/MAP3K9 = MLK1/MAP3K9 (Homo sapiens, UniProt P80192); test: HTRF Transcreener ADP kinase assay; type: biochemical; conditions: for pIC50: HTRF Transcreener ADP assay
Sequence of MLK1/MAP3K9 (P80192 whole entry): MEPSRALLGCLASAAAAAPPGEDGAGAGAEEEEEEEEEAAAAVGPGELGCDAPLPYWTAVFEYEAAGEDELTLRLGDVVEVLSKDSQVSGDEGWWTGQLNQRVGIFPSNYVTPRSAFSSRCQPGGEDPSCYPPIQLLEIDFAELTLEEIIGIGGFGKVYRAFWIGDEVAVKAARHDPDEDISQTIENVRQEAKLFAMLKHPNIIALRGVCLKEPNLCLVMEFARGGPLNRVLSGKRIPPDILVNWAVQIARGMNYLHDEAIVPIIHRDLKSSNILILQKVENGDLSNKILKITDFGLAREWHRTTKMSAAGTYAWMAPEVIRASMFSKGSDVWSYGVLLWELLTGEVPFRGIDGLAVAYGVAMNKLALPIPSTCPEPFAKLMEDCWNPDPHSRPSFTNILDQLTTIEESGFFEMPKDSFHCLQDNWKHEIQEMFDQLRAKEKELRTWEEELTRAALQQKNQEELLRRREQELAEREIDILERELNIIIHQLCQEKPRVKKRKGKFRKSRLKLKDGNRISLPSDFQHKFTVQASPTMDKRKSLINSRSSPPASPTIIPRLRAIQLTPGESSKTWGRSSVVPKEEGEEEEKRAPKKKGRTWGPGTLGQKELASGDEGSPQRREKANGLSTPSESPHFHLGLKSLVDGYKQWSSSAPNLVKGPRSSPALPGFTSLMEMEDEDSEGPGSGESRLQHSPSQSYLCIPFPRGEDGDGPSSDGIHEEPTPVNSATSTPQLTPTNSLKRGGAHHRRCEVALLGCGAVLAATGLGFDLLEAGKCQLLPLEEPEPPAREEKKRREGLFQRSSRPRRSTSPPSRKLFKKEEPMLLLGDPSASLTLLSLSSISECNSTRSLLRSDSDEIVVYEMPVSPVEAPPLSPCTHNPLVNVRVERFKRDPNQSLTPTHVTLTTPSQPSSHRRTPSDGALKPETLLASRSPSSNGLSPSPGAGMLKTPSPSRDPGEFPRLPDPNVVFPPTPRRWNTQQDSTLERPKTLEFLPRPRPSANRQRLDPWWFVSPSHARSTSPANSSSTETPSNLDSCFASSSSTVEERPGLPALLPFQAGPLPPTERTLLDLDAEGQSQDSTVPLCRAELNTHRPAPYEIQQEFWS
Procedure: as §1, §2

Aurora B = molecular target: T1, Aurora B (Homo sapiens, UniProt Q96GD4); test: HTRF Transcreener ADP kinase assay; type: biochemical
T1 construct: lines 1-140) and Reaction Biology
T1 sequence (Q96GD4 whole entry): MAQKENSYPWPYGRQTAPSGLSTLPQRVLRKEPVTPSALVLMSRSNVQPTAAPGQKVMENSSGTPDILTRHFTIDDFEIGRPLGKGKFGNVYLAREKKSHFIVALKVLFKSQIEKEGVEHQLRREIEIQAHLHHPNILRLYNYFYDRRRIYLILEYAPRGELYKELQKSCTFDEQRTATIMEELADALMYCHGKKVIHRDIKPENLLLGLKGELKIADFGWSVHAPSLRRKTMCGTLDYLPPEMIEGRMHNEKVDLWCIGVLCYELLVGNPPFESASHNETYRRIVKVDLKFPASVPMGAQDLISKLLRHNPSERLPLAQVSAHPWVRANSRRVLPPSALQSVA
Procedure: as §1, §2

GCK/MAP4K2 = molecular target: T2, GCK/MAP4K2 (Homo sapiens, UniProt Q12851); test: HTRF Transcreener ADP kinase assay; type: biochemical; conditions: for pIC50: HTRF Transcreener ADP assay
T2 sequence (Q12851 1-820): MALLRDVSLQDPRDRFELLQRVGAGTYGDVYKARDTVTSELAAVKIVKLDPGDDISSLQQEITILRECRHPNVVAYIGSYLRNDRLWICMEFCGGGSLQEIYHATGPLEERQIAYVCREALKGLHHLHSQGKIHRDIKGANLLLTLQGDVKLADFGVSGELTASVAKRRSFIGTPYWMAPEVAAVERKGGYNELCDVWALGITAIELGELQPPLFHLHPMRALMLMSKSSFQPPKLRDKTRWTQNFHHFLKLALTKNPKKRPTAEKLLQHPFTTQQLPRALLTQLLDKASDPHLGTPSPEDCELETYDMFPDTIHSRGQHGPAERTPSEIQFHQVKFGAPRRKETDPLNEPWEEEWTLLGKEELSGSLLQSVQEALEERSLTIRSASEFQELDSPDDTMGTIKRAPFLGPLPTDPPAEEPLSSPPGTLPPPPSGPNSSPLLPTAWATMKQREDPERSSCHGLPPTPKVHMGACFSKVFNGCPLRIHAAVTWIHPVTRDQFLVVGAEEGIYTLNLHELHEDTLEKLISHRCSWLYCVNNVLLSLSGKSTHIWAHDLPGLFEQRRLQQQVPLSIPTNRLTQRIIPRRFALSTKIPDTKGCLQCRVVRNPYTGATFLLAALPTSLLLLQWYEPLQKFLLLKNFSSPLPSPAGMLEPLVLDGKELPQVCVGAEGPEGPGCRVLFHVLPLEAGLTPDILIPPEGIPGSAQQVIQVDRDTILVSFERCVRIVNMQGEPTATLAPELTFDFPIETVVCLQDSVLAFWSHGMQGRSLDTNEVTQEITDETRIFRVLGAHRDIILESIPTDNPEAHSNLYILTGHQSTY
Procedure: as §1, §2

MLK3/MAP3K11 = MLK3/MAP3K11 (Homo sapiens, UniProt Q16584); test: HTRF Transcreener ADP kinase assay; type: biochemical; conditions: for pIC50: HTRF Transcreener ADP assay
Sequence of MLK3/MAP3K11 (Q16584 whole entry): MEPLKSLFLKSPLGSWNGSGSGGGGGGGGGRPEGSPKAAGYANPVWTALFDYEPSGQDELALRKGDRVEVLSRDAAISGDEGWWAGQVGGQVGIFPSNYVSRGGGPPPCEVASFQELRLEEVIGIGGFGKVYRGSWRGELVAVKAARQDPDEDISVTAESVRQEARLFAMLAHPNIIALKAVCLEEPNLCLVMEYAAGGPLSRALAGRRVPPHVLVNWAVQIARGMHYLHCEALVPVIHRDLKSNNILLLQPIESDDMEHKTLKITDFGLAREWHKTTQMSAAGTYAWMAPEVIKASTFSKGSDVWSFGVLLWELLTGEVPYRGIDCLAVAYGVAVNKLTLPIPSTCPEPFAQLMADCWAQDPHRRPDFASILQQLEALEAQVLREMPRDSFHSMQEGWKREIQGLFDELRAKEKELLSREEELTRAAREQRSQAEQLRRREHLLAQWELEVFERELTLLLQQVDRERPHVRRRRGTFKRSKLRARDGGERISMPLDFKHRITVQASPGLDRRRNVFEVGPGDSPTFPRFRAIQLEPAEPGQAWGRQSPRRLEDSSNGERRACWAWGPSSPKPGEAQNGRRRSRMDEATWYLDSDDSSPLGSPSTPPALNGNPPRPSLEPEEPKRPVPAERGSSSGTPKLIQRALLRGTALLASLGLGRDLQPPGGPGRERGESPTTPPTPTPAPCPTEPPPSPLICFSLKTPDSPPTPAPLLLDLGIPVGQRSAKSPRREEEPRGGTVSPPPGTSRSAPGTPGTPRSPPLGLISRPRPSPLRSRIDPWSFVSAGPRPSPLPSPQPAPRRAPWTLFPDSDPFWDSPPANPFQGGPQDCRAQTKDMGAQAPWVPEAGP
Procedure: as §1, §2

GSK3β = GSK3β (Homo sapiens, UniProt P49841); test: HTRF Transcreener ADP kinase assay; type: biochemical; conditions: for pIC50: HTRF Transcreener ADP assay
Sequence of GSK3β (P49841 whole entry): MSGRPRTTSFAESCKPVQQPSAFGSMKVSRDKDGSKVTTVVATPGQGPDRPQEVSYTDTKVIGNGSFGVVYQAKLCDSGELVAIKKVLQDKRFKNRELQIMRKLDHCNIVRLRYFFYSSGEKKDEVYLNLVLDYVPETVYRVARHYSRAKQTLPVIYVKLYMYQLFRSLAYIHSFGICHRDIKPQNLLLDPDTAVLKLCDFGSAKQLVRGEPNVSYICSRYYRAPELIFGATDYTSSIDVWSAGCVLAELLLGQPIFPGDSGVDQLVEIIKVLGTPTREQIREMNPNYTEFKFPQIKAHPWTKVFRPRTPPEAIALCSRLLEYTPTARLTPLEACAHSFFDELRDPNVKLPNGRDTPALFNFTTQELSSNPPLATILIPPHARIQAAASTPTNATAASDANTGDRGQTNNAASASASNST
Procedure: as §1, §2

vCor.4U cardiomyocytes = test: CellTiter-Glo viability after oxidative stress (H2O2 or menadione); type: cell-based, human; conditions: for protection from death signal (CellTiter-Glo): vCor.4U, 10 μM compound, up to 200 μM H2O2 or 45 μM menadione
Procedure: vCor.4U cardiomyocytes were cultured, except where noted, on white (viability) or black (FLIPR) clear-bottom 384-well plates, treated for 1 hr with […] fibronectin (Sigma-Aldrich). To minimize batch to batch variation, thawed cells first were transferred from cryo-vials into sterile 250 mL flasks containing pre-warmed vCor.4U maintenance medium, for 3-5 d. The cells were then plated at 1000 well^-1 for viability assays or 5000 cells well^-1 for FLIPR experiments, all in 40 μl well^-1 of the maintenance medium. Cells were cultured in Axiogenesis complete medium followed by incomplete medium, were subjected to oxidative stress ± test compounds on day 3, and were assayed on day 4 (Figures 4D and 4E). Alternatively, complete medium was replaced on day 2 of culture with 40 μl of DMEM high Glucose (no FCS or pyruvate), followed by removal and replacement of 20 μl every 2 d for 10 d (Figures 4A–4C).
H2O2, menadione (Sigma-Aldrich), doxorubicin (Calbiochem), and C2-ceramide (N-acetyl-D-sphingosine) were used at the indicated concentrations. MAP4K4 inhibitors were serially diluted in DMSO, transferred to an intermediate plate using assay medium as a diluting agent, and added at a final concentration of 0.1% DMSO. MAP4K4 inhibitors were added to cultured cardiomyocytes 1 hr before the cell death inducers, except where noted, and remained present for the duration of the experiment.
For cell-based dose-response experiments, MAP4K4 inhibitors were prepared in 96-well polypropylene plates as serial dilutions in DMSO of 10 mM stock solutions. To a sterile 96-well intermediate plate, 1 μl of each well was added to 99 μl of medium, the samples were mixed, and 5 μl well^-1 from the intermediate plate were transferred to the cultured cells (final concentration, 0.1% DMSO; final top concentration of inhibitor, 10 μM). Assay plates were gently centrifuged then incubated for 1 hr at 37°C. The death triggers menadione, H2O2 and doxorubicin were prepared fresh on the day of treatment at 10x the final concentrations and 5 μl well^-1 were added as appropriate. Assay plates were gently centrifuged and then incubated at 37°C for the duration of treatment.
Assay plates were removed from the incubator, allowed to reach room temperature, inoculated with 20 μl well^-1 CTG reagent (Promega), and gently agitated for 30 min. Prior to adding CTG, 2 μl well^-1 of the culture medium was removed and placed into a white 384-well low volume plate for measurement of cardiac troponin release by AlphaLISA (below). Luminescence due to ATP, proportional to cell number, was captured on a PHERAstar Plus microplate reader (BMG Labtech). Normalized values were plotted against the log concentration of death signal or inhibitor, and a 4-parameter fit was used to identify IC50 and EC50, respectively.

Sequence of FLT3 (P36888 27-993): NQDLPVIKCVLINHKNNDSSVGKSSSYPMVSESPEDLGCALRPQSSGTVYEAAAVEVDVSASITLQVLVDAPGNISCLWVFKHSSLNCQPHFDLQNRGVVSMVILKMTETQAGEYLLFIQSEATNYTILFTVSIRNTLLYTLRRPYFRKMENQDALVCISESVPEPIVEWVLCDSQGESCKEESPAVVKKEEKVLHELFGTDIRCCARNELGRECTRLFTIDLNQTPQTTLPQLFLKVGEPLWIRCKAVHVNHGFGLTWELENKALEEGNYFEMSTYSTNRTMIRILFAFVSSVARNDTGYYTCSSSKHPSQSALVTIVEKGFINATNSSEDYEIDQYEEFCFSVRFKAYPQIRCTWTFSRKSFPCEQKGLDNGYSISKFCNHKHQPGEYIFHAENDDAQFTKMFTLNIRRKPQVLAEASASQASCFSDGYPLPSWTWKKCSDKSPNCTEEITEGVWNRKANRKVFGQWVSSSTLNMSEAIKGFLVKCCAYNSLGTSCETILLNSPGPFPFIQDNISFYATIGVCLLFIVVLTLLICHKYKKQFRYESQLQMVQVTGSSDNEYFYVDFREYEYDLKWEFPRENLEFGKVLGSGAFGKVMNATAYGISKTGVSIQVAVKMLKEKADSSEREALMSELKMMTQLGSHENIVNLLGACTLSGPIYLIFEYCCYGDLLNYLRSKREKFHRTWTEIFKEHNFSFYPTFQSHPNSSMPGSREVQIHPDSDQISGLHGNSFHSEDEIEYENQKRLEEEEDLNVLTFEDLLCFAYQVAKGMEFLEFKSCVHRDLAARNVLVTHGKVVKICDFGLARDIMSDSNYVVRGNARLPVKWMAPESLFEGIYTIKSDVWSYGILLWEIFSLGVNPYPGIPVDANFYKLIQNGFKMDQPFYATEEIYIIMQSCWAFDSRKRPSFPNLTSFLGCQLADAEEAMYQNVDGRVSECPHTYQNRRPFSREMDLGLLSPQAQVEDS

Structure (SMILES) | pIC50 (FLT3; HTRF Transcreener ADP assay) | pIC50 (MLK1/MAP3K9; MLK1/MAP3K9) | pIC50 (Aurora B; HTRF Transcreener ADP assay) | pIC50 (GCK/MAP4K2; GCK/MAP4K2) | pIC50 (MLK3/MAP3K11; MLK3/MAP3K11) | pIC50 (GSK3β; GSK3β) | protection from death signal (CellTiter-Glo) (vCor.4U cardiomyocytes) | DMX-5804 vs F1386-0303 (FLT3; ratio of fold selectivity) | Fold Selectivity (MLK1/MAP3K9; MLK1/MAP3K9 versus MAP4K4) | DMX-5804 vs F1386-0303 (MLK1/MAP3K9; ratio of fold selectivity, MLK1/MAP3K9) | DMX-5804 vs F1386-0303 (Aurora B; ratio of fold selectivity) | Fold Selectivity (GCK/MAP4K2; GCK/MAP4K2 versus MAP4K4) | DMX-5804 vs F1386-0303 (GCK/MAP4K2; ratio of fold selectivity, GCK/MAP4K2) | Fold Selectivity (MLK3/MAP3K11; MLK3/MAP3K11 versus MAP4K4) | DMX-5804 vs F1386-0303 (MLK3/MAP3K11; ratio of fold selectivity, MLK3/MAP3K11) | Fold Selectivity (GSK3β; GSK3β versus MAP4K4) | DMX-5804 vs F1386-0303 (GSK3β; ratio of fold selectivity, GSK3β) | protection if given 1 h after oxidative stress (vCor.4U cardiomyocytes; 400 μM H2O2, CellTiter-Glo)
Oc1ncnc2c1c(-c1ccccc1)cn2-c1ccccc1 [F1386-0303, 5,7-diphenyl-7H-pyrrolo[2,3-d]pyrimidin-4-ol] | 5.66 | 6.28 | 4.88 | 5.91 | 6.09 | 4.57 | virtually complete |  |  |  |  |  |  |  |  |  |  | 
COCCOc1ccc(-c2cn(-c3ccccc3)c3nc[nH]c(=O)c23)cc1 [DMX-5804, 5-[4-(2-methoxy-ethoxy)-phenyl]-7-phenyl-3,7-dihydro-pyrrolo[2,3-d]pyrimidin-4-one] |  | 7.19 |  | 6.50 | 6.99 | 4.66 | substantiated | 18.22 | 23 | 1.53 | 1.47 | 112 | 3.20 | 36 | 1.57 | 7762 | 10.00 | partial protection
